Laboratory results as given in PubChem BioAssay AID248 (DTP/NCI, 2004).
“And” between values parts separate entries of the source, which are not always exact repeats. Equal entries are not always repeated. Toxic doses and inconclusive results are not listed. No stated cut-off is given here; in the data, active means T/C of 150% or more; inactive means T/C below 125%.

Tested on: L1210 leukemia ip in BDF1 mice, survival T/C
Experiment: NCI In Vivo Anticancer Drug Screen. Data for tumor model L1210 Leukemia (intraperitoneal) in B6D2F1 (BDF1) mice
Conditions: endpoint: mean survival time, higher = longer survival
Method in brief: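 Tumor cells were implanted, animals were treated, and survival was followed. The result divides the treated measurement by the vehicle-control measurement.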

[1] = dose: 100.0 mg/kg/injection, schedule: Q01DX009 (ip), vehicle: Klucel (hydroxypropylcellulose) (HPC)
[2] = dose: 200.0 mg/kg/injection, schedule: Q01DX009 (ip), vehicle: Klucel (hydroxypropylcellulose) (HPC)
[3] = dose: 100.0 mg/kg/injection, schedule: Q04DX003 (ip), vehicle: saline
[4] = dose: 200.0 mg/kg/injection, schedule: Q04DX003 (ip), vehicle: saline
[5] = dose: 400.0 mg/kg/injection, schedule: Q04DX003 (ip), vehicle: saline
[6] = dose: 400.0 mg/kg/injection, schedule: Q01DX009 (ip), vehicle: Klucel (hydroxypropylcellulose) (HPC)
[7] = dose: 100.0 mg/kg/injection, schedule: Q04DX003 (ip), vehicle: saline with Tween-80

Measured: T/C

C=CCSc1nc(N)nc2c1nc(SCC=C)n2C1OC(CO)C(O)C1O (stereo not given)
inactive: dose: 50.0 mg/kg/injection, schedule: Q01DX005 (ip), vehicle: saline 93 % of control | dose: 100.0 mg/kg/injection, schedule: Q01DX005 (ip), vehicle: saline 102 % of control | dose: 200.0 mg/kg/injection, schedule: Q01DX005 (ip), vehicle: saline 100 % of control

O=C(Nc1ccc(C2=NCC(O)CN2)cc1)c1ccc(C(=O)Nc2ccc(C3=NCC(O)CN3)cc2)c(Cl)c1 (stereo not given)
inactive: dose: 12.0 micrograms/kg/injection, schedule: Q01DX015 (ip), vehicle: water 96 % of control | dose: 25.0 micrograms/kg/injection, schedule: Q01DX015 (ip), vehicle: water 114 % of control | dose: 50.0 micrograms/kg/injection, schedule: Q01DX015 (ip), vehicle: water 96 % of control | dose: 75.0 micrograms/kg/injection, schedule: Q01DX015 (ip), vehicle: water 102 % of control

O=C(Nc1cccc(O)c1)Nc1ccc(Cl)cc1[N+](=O)[O-]
inactive: [1] 102 % of control | [2] 101 % of control

CC(C(N)=O)N1C(=O)C2C3CCC(C3)C2C1=O (stereo not given)
inactive: [3] 103 % of control | [4] 91 % of control | [5] 86 % of control

CCCCCCC(C)N(CC)CCOC(=O)c1ccc(N)cc1 (stereo not given)
inactive: dose: 75.0 mg/kg/injection, schedule: Q01DX001 (ip), vehicle: other 94 % of control | dose: 150.0 mg/kg/injection, schedule: Q01DX001 (ip), vehicle: other 98 % of control

O=c1c2ccccc2[nH]c(=S)n1-c1cccc(C(F)(F)F)c1
inactive: [1] 100 % of control | [2] 97 % of control | [6] 96 % of control

CC(C)=CCNC12CC3CC(CC(C3)C1)C2
inactive: dose: 5.0 mg/kg/injection, schedule: Q01DX001 (ip), vehicle: saline 101 % of control | dose: 10.0 mg/kg/injection, schedule: Q01DX001 (ip), vehicle: saline 106 % of control | dose: 20.0 mg/kg/injection, schedule: Q01DX001 (ip), vehicle: saline 108 % of control | dose: 40.0 mg/kg/injection, schedule: Q01DX001 (ip), vehicle: saline 107 % of control | dose: 80.0 mg/kg/injection, schedule: Q01DX001 (ip), vehicle: saline 104 % of control

CN(N=O)C(=O)NC1CC2CCC1C2 (stereo not given)
inactive: dose: 4.0 mg/kg/injection, schedule: Q01DX001 (ip), vehicle: other 104 % of control | dose: 8.0 mg/kg/injection, schedule: Q01DX001 (ip), vehicle: other 104 % of control | dose: 16.0 mg/kg/injection, schedule: Q01DX001 (ip), vehicle: other 108 % of control | dose: 31.0 mg/kg/injection, schedule: Q01DX001 (ip), vehicle: other 104 % of control | dose: 62.0 mg/kg/injection, schedule: Q01DX001 (ip), vehicle: other 100 % of control | dose: 125.0 mg/kg/injection, schedule: Q01DX001 (ip), vehicle: other 104 % of control | dose: 250.0 mg/kg/injection, schedule: Q01DX001 (ip), vehicle: other 112 % of control | dose: 375.0 mg/kg/injection, schedule: Q01DX001 (ip), vehicle: other 112 % of control | dose: 500.0 mg/kg/injection, schedule: Q01DX001 (ip), vehicle: other 118 % of control

c1ccc(N=NNc2ccccc2)cc1
inactive: dose: 6.25 mg/kg/injection, schedule: Q01DX009 (ip), vehicle: saline with Tween-80 100 % of control | dose: 12.5 mg/kg/injection, schedule: Q01DX009 (ip), vehicle: saline with Tween-80 94 % of control | dose: 25.0 mg/kg/injection, schedule: Q01DX009 (ip), vehicle: saline with Tween-80 98 % of control

CC(=O)N(C)c1ccc(NC(=O)Nc2ccccc2C(F)(F)F)cc1
inactive: [1] 95 % of control | [2] 93 % of control | [6] 103 % of control

CN(C)S(=O)(=O)Oc1cccc([N+](=O)[O-])c1
inactive: dose: 25.0 mg/kg/injection, schedule: Q04DX003 (ip), vehicle: saline with Tween-80 100 % of control | dose: 50.0 mg/kg/injection, schedule: Q04DX003 (ip), vehicle: saline with Tween-80 104 % of control | [7] 100 % of control

FC(F)C(F)(F)C(F)(F)C(F)(F)C(F)(F)C(F)(F)COc1nc(OCC(F)(F)C(F)(F)C(F)(F)C(F)(F)C(F)(F)C(F)F)nc(OCC(F)(F)C(F)(F)C(F)(F)C(F)(F)C(F)(F)C(F)F)n1
inactive: dose: 25.6 mg/kg/injection, schedule: Q04DX002 (ip), vehicle: saline with Tween-80 97 % of control | dose: 50.0 mg/kg/injection, schedule: Q01DX009 (ip), vehicle: saline with Tween-80 89 % of control | dose: 64.0 mg/kg/injection, schedule: Q04DX002 (ip), vehicle: saline with Tween-80 91 % of control | dose: 100.0 mg/kg/injection, schedule: Q01DX009 (ip), vehicle: saline with Tween-80 92 % of control | [7] 91 % of control | dose: 160.0 mg/kg/injection, schedule: Q04DX002 (ip), vehicle: saline with Tween-80 97 % of control | dose: 200.0 mg/kg/injection, schedule: Q01DX009 (ip), vehicle: saline with Tween-80 90 % of control | dose: 200.0 mg/kg/injection, schedule: Q04DX003 (ip), vehicle: saline with Tween-80 86 % of control | dose: 400.0 mg/kg/injection, schedule: Q04DX002 (ip), vehicle: saline with Tween-80 91 % of control | dose: 400.0 mg/kg/injection, schedule: Q04DX003 (ip), vehicle: saline with Tween-80 87 % of control

COC(=O)c1nc(Cl)nc(S(C)(=O)=O)c1Cl
inactive: dose: 12.5 mg/kg/injection, schedule: Q01DX009 (ip), vehicle: Klucel (hydroxypropylcellulose) (HPC) 109 % of control | dose: 25.0 mg/kg/injection, schedule: Q01DX009 (ip), vehicle: Klucel (hydroxypropylcellulose) (HPC) 103 % of control | dose: 50.0 mg/kg/injection, schedule: Q01DX009 (ip), vehicle: Klucel (hydroxypropylcellulose) (HPC) 103 % of control and 89 % of control | [1] 92 % of control

CC(C)(CCC#N)C1OCCO1
inactive: dose: 100.0 mg/kg/injection, schedule: Q01DX009 (ip), vehicle: saline 106 % of control | [3] 98 % of control | dose: 200.0 mg/kg/injection, schedule: Q01DX009 (ip), vehicle: saline 102 % of control | [4] 105 % of control | dose: 400.0 mg/kg/injection, schedule: Q01DX009 (ip), vehicle: saline 102 % of control | [5] 96 % of control

O=[N+]([O-])c1ccc2c(c1)Cc1cc(O)c(I)cc1-2
inactive: dose: 100.0 mg/kg/injection, schedule: Q01DX001 (ip), vehicle: carboxymethylcellulose (CMC) 101 % of control | dose: 200.0 mg/kg/injection, schedule: Q01DX001 (ip), vehicle: carboxymethylcellulose (CMC) 101 % of control | dose: 400.0 mg/kg/injection, schedule: Q01DX001 (ip), vehicle: carboxymethylcellulose (CMC) 97 % of control

OCC1CCCCC1Cc1ccc(F)c2ccccc12 (stereo not given)
inactive: dose: 100.0 mg/kg/injection, schedule: Q01DX001 (ip), vehicle: Klucel (hydroxypropylcellulose) (HPC) 98 % of control | dose: 200.0 mg/kg/injection, schedule: Q01DX001 (ip), vehicle: Klucel (hydroxypropylcellulose) (HPC) 93 % of control | dose: 400.0 mg/kg/injection, schedule: Q01DX001 (ip), vehicle: Klucel (hydroxypropylcellulose) (HPC) 102 % of control

C=C1CC(c2ccc(S(=O)(=O)N3CCCC3)cc2)OC1=O (stereo not given)
inactive: dose: 100.0 mg/kg/injection, schedule: Q04DX002 (ip), vehicle: Klucel (hydroxypropylcellulose) (HPC) 95 % of control | dose: 200.0 mg/kg/injection, schedule: Q04DX002 (ip), vehicle: Klucel (hydroxypropylcellulose) (HPC) 98 % of control

O=[N+]([O-])Nc1cc(Cl)nc(Cl)c1
inactive: dose: 75.0 mg/kg/injection, schedule: Q01DX001 (ip), vehicle: carboxymethylcellulose (CMC) 105 % of control | dose: 150.0 mg/kg/injection, schedule: Q01DX001 (ip), vehicle: carboxymethylcellulose (CMC) 97 % of control
